# US20080318838A1, “PEPTIDES” (priority 1992, published 2008)
# Ends that are not written are not given here.
# Experiment: biological activity of recombinantly produced (1-38)PTH
# Conditions: recombinant product from Gen55-Asn-Gly-Pro-(1-38)PTH fusion
# Description: From a non-optimized 20 litre fermentation a 78 g wet cell pellet with 50% expression of the fusion protein is harvested. Following lysis and centrifugation, 18 g of “90% pure” inclusion bodies are obtained. Following the acid stop step and centrifugation/filtration about 470 mg Gly-pro-PTH are detected. After HPLC on C4-Vydac, 355 mg of peptide are detected, decreasing to 321 mg after SP-Sepharose cation-exchange. Enzymatic removal of the Gly and Pro residues is carried out at 2 mg/ml.
substance,measurement,value
"hPTH-(1-38)-OH (SVSEIQLMHNLGKHLNSMERVEWLRKKLQDVHNFVALG-OH; UniProt P01270 32-69, looked up, fragment) [(1-38)PTH, natural human PTH fragment 1-38, produced recombinantly from a gp55 fusion protein in E. coli]",biological activity,fully biologically active
